Results: patent US20160183526A1, “FUNGICIDAL COMPOSITIONS” (Dow AgroSciences LLC, priority 2014, published 2016)

Legend:
[1] = Solubility of a mixture of Compound A and prothioconazole in benzyl acetate/AMD810 blends at 10° C. (HPLC); type: physicochemical; details: both actives saturated
Method: A study of the Compound A and prothioconazole solubility in blends of benzyl acetate/AMD810 was conducted. To each solvent blend both actives were added until each was saturated and the resulting mixtures were then stored at 10° C. until equilibrium was obtained. Aliquots of the supernatant layer were taken from each sample, filtered (0.45 μm mesh) and analyzed by HPLC to determine the solution concentration of each active in the blends.

[2] = Solubility of Compound A and prothioconazole in benzyl acetate/AMD810/cyclohexanone blends at 10° C.; type: physicochemical; details: one week
Method: A total of 20 g of each solvent blend was prepared per sample. For example, one of the blends (Blend 4) was prepared by combining cyclohexanone 0.2 (4 g), benzyl acetate 0.2 (4 g) and AMD810 0.6 (12 g). To Blend 4 were added amounts of Compound A and prothioconazole technical active ingredients to achieve saturation concentrations of each. The samples were then stored at 10° C. for one week and then were analysed for soluble active ingredient content.

[3] = Approximate relative solubility of active ingredients in organic solvents at ambient temperature; type: physicochemical
[4] = estimated from a survey of the literature; miscible means totally soluble in water in all amounts; cited from earlier work

Compound: OC(Cc1ccccc1Cl)(Cn1nc[nH]c1=S)C1(Cl)CC1 (stereo not shown) [Prothioconazole, prothioconazole]
- Prothioconazole Solubility at 10° C. ([1]; benzyl acetate 0 wt % in blend with AMD810): 31.3 % w/w
- Prothioconazole Solubility at 10° C. ([1]; benzyl acetate 20 wt % in blend with AMD810): 32.3 % w/w
- Prothioconazole Solubility at 10° C. ([1]; benzyl acetate 40 wt % in blend with AMD810): 33.1 % w/w
- Prothioconazole Solubility at 10° C. ([1]; benzyl acetate 60 wt % in blend with AMD810): 32.1 % w/w
- Prothioconazole Solubility at 10° C. ([1]; benzyl acetate 80 wt % in blend with AMD810): 26.6 % w/w
- Prothioconazole Solubility at 10° C. ([1]; benzyl acetate 100 wt % in blend with AMD810): 16.2 % w/w
- Prothioconazole Solubility @ 10° C. ([2]; Blend 1: cyclohexanone 0/benzyl acetate 0/AMD810 1 (weight fraction)): 34.3 % w/w
- Prothioconazole Solubility @ 10° C. ([2]; Blend 2: cyclohexanone 0/benzyl acetate 0.2/AMD810 0.8 (weight fraction)): 32.3 % w/w
- Prothioconazole Solubility @ 10° C. ([2]; Blend 3: cyclohexanone 0.2/benzyl acetate 0/AMD810 0.8 (weight fraction)): 33.9 % w/w
- Prothioconazole Solubility @ 10° C. ([2]; Blend 4: cyclohexanone 0.2/benzyl acetate 0.2/AMD810 0.6 (weight fraction)): 32.9 % w/w
- Prothioconazole Solubility @ 10° C. ([2]; Blend 5: cyclohexanone 0/benzyl acetate 0.4/AMD810 0.6 (weight fraction)): 33.1 % w/w
- Prothioconazole Solubility @ 10° C. ([2]; Blend 6: cyclohexanone 0.2/benzyl acetate 0.4/AMD810 0.4 (weight fraction)): 32.1 % w/w
- Prothioconazole Solubility @ 10° C. ([2]; Blend 7: cyclohexanone 0/benzyl acetate 0.6/AMD810 0.4 (weight fraction)): 32.1 % w/w
- Prothioconazole Solubility @ 10° C. ([2]; Blend 8: cyclohexanone 0/benzyl acetate 0.8/AMD810 0.2 (weight fraction)): 26.6 % w/w
- Prothioconazole Solubility @ 10° C. ([2]; Blend 10: cyclohexanone 0.2/benzyl acetate 0.6/AMD810 0.2 (weight fraction)): 29.9 % w/w
- Prothioconazole Solubility @ 10° C. ([2]; Blend 11: cyclohexanone 0/benzyl acetate 1/AMD810 0 (weight fraction)): 16.2 % w/w
- Prothioconazole Solubility @ 10° C. ([2]; Blend 12: cyclohexanone 0.2/benzyl acetate 0.8/AMD810 0 (weight fraction)): 18.4 % w/w
- Relative Solubility of Prothioconazole ([3]; in 2-ethylhexanol): Very Low (<10)
- Relative Solubility of Prothioconazole ([3]; in 2-ethylhexyl benzoate): Very Low (<10)
- Relative Solubility of Prothioconazole ([3]; in 2-ethylhexyl lactate): Medium (>20 to 30)
- Relative Solubility of Prothioconazole ([3]; in 2-heptanone): Low (10 to 20)
- Relative Solubility of Prothioconazole ([3]; in Alkyl naphthalene mixture): Very Low (<10)
- Relative Solubility of Prothioconazole ([3]; in Benzyl acetate): Low (10 to 20)
- Relative Solubility of Prothioconazole ([3]; in Benzyl alcohol): Medium (>20 to 30)
- Relative Solubility of Prothioconazole ([3]; in Butyl benzoate): Low (10 to 20)
- Relative Solubility of Prothioconazole ([3]; in Butyl lactate): Low (10 to 20)
- Relative Solubility of Prothioconazole ([3]; in Butylene carbonate): Very Low (<10)
- Relative Solubility of Prothioconazole ([3]; in Cyclohexanone): High (>30)
- Relative Solubility of Prothioconazole ([3]; in Di-n-butyl carbonate): Very Low (<10)
- Relative Solubility of Prothioconazole ([3]; in Diethylene glycol monoethyl ether): High (>30)
- Relative Solubility of Prothioconazole ([3]; in Ethyl Diglycol Acetate): Very Low (<10)
- Relative Solubility of Prothioconazole ([3]; in Isoparaffin): Very Low (<10)
- Relative Solubility of Prothioconazole ([3]; in Isopropyl benzoate): Very Low (<10)
- Relative Solubility of Prothioconazole ([3]; in Methyl oleate): Very Low (<10)
- Relative Solubility of Prothioconazole ([3]; in Methyl salicylate): Very Low (<10)
- Relative Solubility of Prothioconazole ([3]; in Methyl-5-(Dimethylamino)-2-Methyl-5-Oxopentanoate): High (>30)
- Relative Solubility of Prothioconazole ([3]; in N,N dimethyl fatty acid amides): High (>30)
- Relative Solubility of Prothioconazole ([3]; in N-formyl morpholine and propylene carbonate): Medium (>20 to 30)
- Relative Solubility of Prothioconazole ([3]; in Pentanedioic acid, 2-methyl-1, 5-dimethyl ester): Low (10 to 20)
- Relative Solubility of Prothioconazole ([3]; in Polyethylene glycol): Medium (>20 to 30)
- Relative Solubility of Prothioconazole ([3]; in Polypropylene glycol): Low (10 to 20)
- Relative Solubility of Prothioconazole ([3]; in Propylene carbonate): Very Low (<10)
- Relative Solubility of Prothioconazole ([3]; in Soybean oil): Very Low (<10)
- Relative Solubility of Prothioconazole ([3]; in Sulfolane): Low (10 to 20)
- Relative Solubility of Prothioconazole ([3]; in Tributoxyethyl phosphate): High (>30)
- Relative Solubility of Prothioconazole ([3]; in dimethyl esters of adipic, glutaric and succinic acids): Low (10 to 20)

Compound: CCOCCOCCOC(C)=O [Ethyl Diglycol Acetate]
- Solubility of Solvent in Water [4]: Miscible

Compound: CCCCCCCC/C=C\CCCCCCCC(=O)OC [Methyl oleate]
- Solubility of Solvent in Water [4]: 0.0011 g/L

Compound: CCCCOC(=O)OCCCC [Di-n-butyl carbonate]
- Solubility of Solvent in Water [4]: 0.82 g/L

Compound: O=C1CCCCC1 [Cyclohexanone]
- Solubility of Solvent in Water [4]: 8.6 to 25 g/L

Compound: CCOCCOCCO [Diethylene glycol monoethyl ether]
- Solubility of Solvent in Water [4]: Miscible

Compound: COC(=O)c1ccccc1O [Methyl salicylate]
- Solubility of Solvent in Water [4]: <5 g/L

Compound: CC1COC(=O)O1 (stereo not shown) [Propylene carbonate]
- Solubility of Solvent in Water [4]: 17.5 g/L

Compound: CC(=O)OCc1ccccc1 [Benzyl acetate]
- Solubility of Solvent in Water [4]: 1.0 to 3.1 g/L

Compound: CC(C)OC(=O)c1ccccc1 [Isopropyl benzoate]
- Solubility of Solvent in Water [4]: 0.64 g/L

Compound: COC(=O)C(C)CCC(=O)N(C)C (stereo not shown) [Methyl-5-(Dimethylamino)-2-Methyl-5-Oxopentanoate]
- Solubility of Solvent in Water [4]: 79 g/L

Compound: CCCCOC(=O)C(C)O (stereo not shown) [Butyl lactate]
- Solubility of Solvent in Water [4]: 42 g/L

Compound: COC(=O)CCC(C)C(=O)OC (stereo not shown) [Pentanedioic acid, 2-methyl-1,5-dimethyl ester]
- Solubility of Solvent in Water [4]: 25 g/L
